Test results from paper PMC11245370, “3-Position Biaryl Endochin-like Quinolones with Enhanced Antimalarial Performance” (ACS Infectious Diseases, 2024).

Legend:
[1] = test system: P. yoelii blood-stage infection; settings: mice, oral gavage days 1-4, followed to day 30
Protocol: (§1) On day 5, a drop of blood was taken from the tail, and a blood smear was prepared, fixed with methanol, and stained with Giemsa. The operator then examined the stained smear microscopically to determine percent parasitemia. […] In this model, animals were inoculated exactly as for the 4 day test on day 0; however, drug was administered only on day 1, whereas smears were made on day 5 and again weekly thereafter for animals that remained aparasitemic. Animals that remained aparasitemic on day 30 were scored as cures.
The P. yoelii 4 day test monitors suppression of patent infection in female CF1 mice. The test began with the inoculation (iv) of parasitized erythrocytes (3.5 × 10^4P. yoelli) (from a donor animal) on the first day of the experiment (D0). […] Initially, the 3-biaryl-ELQs were tested at doses of 0.0025, 0.005, 0.01, 0.03, 0.1, 0.3, 1.0, and 10 mg/kg/day, including a vehicle-only (PEG400) control. After completion of drug treatment, a blood sample was collected (by pricking the tail vein) for determination of parasite burden beginning on the day after the final dose (D5). Percent parasitemia was assessed by direct microscopic analysis of Giemsa-stained blood smears. […] Animals with observable parasitemia following the experiment were euthanized; animals cleared of parasites from the bloodstream were observed daily with assessment of parasitemia performed weekly until day 30, at which point the animals were scored as cured of infection. […] Nonlinear regression analysis was used for objective determination of ED50’s and ED90’s from the accumulated data as well as the nonrecrudescence dose (NRD). The 4 day test protocol was reviewed and approved by the local IACUC board at the Portland VA Medical Center. Experiments were performed with four mice per group to ensure statistical accuracy.

[2] = test system: P. yoelii blood-stage infection; assay: Single-dose cure of blood-stage murine malaria; format: in vivo, Plasmodium yoelii; settings: lowest single oral dose curing all four mice, day 30
Protocol: as §1
The effectiveness of selected 3-biaryl ELQs and prodrugs was assessed vs the blood-stage infection for single-dose cures. Mice were infected iv with 3.5 × 10^4P. yoelii infected RBCs as described for the 4 day test above. Drug administration occurred on the day after inoculation (day 1). Test agents were dissolved in PEG-400 and administered ig once. On the fifth day, blood films were prepared, and % parasitemia was assessed. Animals remaining parasite-free for 30 days after drug administration were considered cured. The initial dosing range was 0.25, 0.5, 1, 3, and 10 mg/kg, including a control. Experiments were performed with four mice per group to ensure statistical accuracy. The reported parameter for these studies is the lowest single dose that provides a cure to all four animals in the group.

[3] = test system: P. falciparum drug-sensitive D6 strain; assay: SYBR Green I antiplasmodial assay, D6 strain; format: cell-based; settings: Plasmodium falciparum, D6, 72 h, read-out: P. falciparum IC50 values, D6
Protocol: (§2) All of this information is stored in a database with information relating to chemical structure, physical chemical properties, cross resistance patterns, mammalian cell cytotoxicity, enzyme inhibitor profiles, and synthesis details. Pharmacological data and in vivo efficacy data are also stored in the database for molecules of particular interest. […] We synthesized the compound in an initial batch size of about 800 mg as described above. […] Fluorescence readings were captured with a fluorescence plate reader and processed by nonlinear regression analysis using the GraphPad Prism software to provide IC50 values for each determination. Stock solutions were freshly prepared daily in DMSO in glass vials.
(§3) Laboratory strains of P. falciparum were cultured in human erythrocytes by standard methods. The parasites were grown in culture medium with fresh human erythrocytes maintained at 2% hematocrit at 37 °C in low-oxygen conditions (5% O2, 5% CO2, 90% N2). […] Cultures were maintained at less than 10% parasitemia by transfer of infected cells to fresh erythrocytes and culture medium every 3 or 4 days.
(§4) SYBR green I assay. In vitro antiplasmodial activity was assessed using a published SYBR Green I fluorescence-based method.[20] The drugs were added to 96-well plates using twofold serial dilutions in complete medium. […] Asynchronous P. falciparum parasites were diluted with uninfected erythrocytes and added to the wells to give a final culture volume of 100 μL at 2% hematocrit and 0.2% parasitemia. […] The parasites were then lysed by adding 100 μL of SYBR green I lysis buffer containing 0.2 μL/ml SYBR green I dye (10,000×) in 20 mM Tris (pH 7.5), 5 mM EDTA, 0.008% (wt/vol) saponin, and 0.08% (v/v) Triton X-100. The plates were incubated at room temperature for an hour in the dark. […] If the IC50 value fell outside of the initially tested range, then the range was adjusted up or down, and the assay was repeated twice.

[4] = HepG2 cytotoxicity / mitochondrial toxicity (TiterGlo ATP, galactose medium); settings: human
Protocol: HepG2 was routinely cultured in DMEM containing 10% fetal calf serum and 100 IU/mL penicillin and 100 μg/mL streptomycin (complete medium). For studies to investigate the potential for mitochondrial toxicity by selected 3-biaryl-ELQs, the medium contained galactose rather than glucose to force the cells to produce ATP through oxidative phosphorylation, which in turn makes them sensitive to mitochondrial toxicants.[36] […] After this period, the culture medium was removed, and the cells were shifted to galactose-containing medium with test drugs at concentrations ranging from 0 to 10 μM. Drug dilutions were prepared from DMSO stocks into galactose-containing medium. […] After incubation, the contents of each well were removed, and 25 μL of TiterGlo II reagent mix containing luciferase, detergent, and luciferin was added to each well along with 25 μL of culture medium. […] At this point, the plates were read on a luminometer (SpectraMax iD3 iD5Multi-Mode Microplate Reader), and the data were processed to yield the percent decrease in ATP production relative to no-drug control values. These values reflect the potential damage caused by mitochondrial toxicants due to reduced intracellular ATP levels caused by interference with the human mitochondrial electron transport chain. Assays were set up in triplicate.

[5] = test system: P. falciparum multidrug-resistant Dd2 strain; assay: microbe, parasite or virus in culture; format: cell-based; settings: Plasmodium falciparum, DD2, 72 h, read-out: P. falciparum IC50 values, Dd2
Protocol: as §2, §3, §4

[6] = test system: P. falciparum atovaquone-resistant clinical isolate Tm90-C2B; assay: SYBR Green I antiplasmodial assay, Tm90-C2B; format: cell-based; settings: Plasmodium falciparum, TM90, 72 h, read-out: P. falciparum IC50 values, Tm90-C2B
Protocol: as §2, §3, §4

[7] = test system: P. falciparum ELQ-300-resistant D1 clone; assay: microbe, parasite or virus in culture; format: cell-based; settings: Plasmodium falciparum, 72 h, read-out: P. falciparum IC50 values, D1

| Compound | blood stage in vivo efficacy, 4 day Peters test results, NRD (nonrecrudescence dose) [1] [mg/kg/day] | blood stage in vivo efficacy, single dose cure [2] [mg/kg/day] | IC50 [3] [nM] | IC50 at 24 h [4] [nM] | IC50 [5] [nM] | IC50 [6] [nM] | IC50 [7] [nM] | IC50 at 24 h ([4]; HepG2 cells) [nM] |
| --- | --- | --- | --- | --- | --- | --- | --- | --- |
| CCN(CC)CCCC(C)Nc1ccnc2cc(Cl)ccc12 (centres unmarked) [CQ] | >64 | >64 |  |  |  |  |  |  |
| Cc1[nH]c2cc(F)cc(F)c2c(=O)c1-c1ccc(Oc2ccc(OC(F)(F)F)cc2)cc1 [ELQ-400, reference compound] |  |  | 0.19 | 10000 | 0.44 | 19.3 | 0.73 |  |
| COc1cc2[nH]c(C)c(-c3ccc(-c4ccc(OC(F)F)cc4)cc3)c(=O)c2cc1Cl [ELQ-600, 6-Chloro-3-(4′-(difluoromethoxy)-[1,1′-biphenyl]-4-yl)-7-methoxy-2-methylquinolin-4(1H)-one] |  |  | 3.9 |  | 13.4 | 5.9 | > 250 | > 10000 |
| Cc1[nH]c2cc(F)cc(F)c2c(=O)c1-c1ccc(-c2ccc(OC(F)(F)F)cc2)cc1 [ELQ-601, 5,7-Difluoro-2-methyl-3-(4′-(trifluoromethoxy)-[1,1′-biphenyl]-4-yl)quinolin-4(1H)-one] |  |  | 5.9 |  | 14.3 | 24.5 | 9.3 |  |
| COc1cc2[nH]c(C)c(-c3ccc(-c4ccc(C#N)cc4)cc3)c(=O)c2cc1Cl [ELQ-602, 4′-(6-Chloro-7-methoxy-2-methyl-4-oxo-1,4-dihydroquinolin-3-yl)-[1,1′-biphenyl]-4-carbonitrile] |  |  | 4.8 |  | 25.2 | 10.9 | > 250 |  |
| COc1cc2[nH]c(C)c(-c3ccc(-c4ccc(C)cc4)cc3)c(=O)c2cc1Cl [ELQ-603, 6-Chloro-7-methoxy-2-methyl-3-(4′-methyl-[1,1′-biphenyl]-4-yl)quinolin-4(1H)-one] |  |  | 1 |  | 3.8 | 1.5 | > 250 |  |
| COc1cc2[nH]c(C)c(-c3ccc(-c4cccc(OC(F)(F)F)c4)cc3)c(=O)c2cc1Cl [ELQ-604, 6-Chloro-7-methoxy-2-methyl-3-(3′-(trifluoromethoxy)-[1,1′-biphenyl]-4-yl)quinolin-4(1H)-one] |  |  | 0.6 |  | 0.5 | 0.5 | > 250 | > 10000 |
| COc1cc2[nH]c(C)c(-c3ccc(-c4ccc(Cl)cc4)cc3)c(=O)c2cc1Cl [ELQ-637, 6-Chloro-3-(4′-chloro-[1,1′-biphenyl]-4-yl)-7-methoxy-2-methylquinolin-4(1H)-one] |  |  | 3.4 |  | 7.1 | 3 | > 250 | > 10000 |
| COc1ccc(-c2ccc(-c3c(C)[nH]c4cc(OC)c(Cl)cc4c3=O)cc2)cc1 [ELQ-645, 6-Chloro-7-methoxy-3-(4′-methoxy-[1,1′-biphenyl]-4-yl)-2-methylquinolin-4(1H)-one] |  |  | 5 |  | 10.2 | 6 | > 250 |  |
| COc1cc2[nH]c(C)c(-c3ccc(-c4cccc(C(F)(F)F)c4)cc3)c(=O)c2cc1Cl [ELQ-646, 6-Chloro-7-methoxy-2-methyl-3-(3′-(trifluoromethyl)-[1,1′-biphenyl]-4-yl)quinolin-4(1H)-one] |  |  | 1.1 |  | 2.7 | 1 | > 250 | > 10000 |
| COc1cc2[nH]c(C)c(-c3ccc(-c4ccc(C(F)(F)F)cc4)cc3)c(=O)c2cc1Cl [ELQ-647, 6-Chloro-7-methoxy-2-methyl-3-(4′-(trifluoromethyl)-[1,1′-biphenyl]-4-yl)quinolin-4(1H)-one] |  |  | 3.5 |  | 7.8 | 3.5 | > 250 | > 10000 |
| Cc1[nH]c2ccccc2c(=O)c1-c1ccc(-c2ccc(OC(F)(F)F)cc2)cc1 [ELQ-649, 2-Methyl-3-(4′-(trifluoromethoxy)-[1,1′-biphenyl]-4-yl)quinolin-4(1H)-one] |  |  | 7.9 |  | 8.3 | 6 | 15.8 |  |
| COc1cc2[nH]c(C)c(-c3ccc(-c4ccc(OC(F)(F)F)cc4)cc3)c(=O)c2cc1F [ELQ-650, 6-Fluoro-7-methoxy-2-methyl-3-(4′-(trifluoromethoxy)-[1,1′-biphenyl]-4-yl)quinolin-4(1H)-one] |  |  | 0.8 |  | 1.1 | 0.4 | 14 | > 10000 |
| COc1cc2[nH]c(C)c(-c3ccc(-c4ccc(C(C)(C)C)cc4)cc3)c(=O)c2cc1Cl [ELQ-651, 3-(4′-(tert-Butyl)-[1,1′-biphenyl]-4-yl)-6-chloro-7-methoxy-2-methylquinolin-4(1H)-one] |  |  | 1.1 |  | 1.4 | 0.49 | > 250 |  |
| COc1cc2[nH]c(C)c(-c3ccc(-c4ccc(Oc5ccc(OC(F)(F)F)cc5)cc4)cc3)c(=O)c2cc1Cl [ELQ-653, 6-Chloro-7-methoxy-2-methyl-3-(4′-(4-(trifluoromethoxy)phenoxy)-[1,1′-biphenyl]-4-yl)quinolin-4(1H)-one] |  |  | 1.5 |  | 1.4 | 0.88 | > 250 |  |
| COc1cc2[nH]c(C)c(-c3ccc(-c4ccc(C(F)F)cc4)cc3)c(=O)c2cc1Cl [ELQ-659, 6-Chloro-3-(4′-(difluoromethyl)-[1,1′-biphenyl]-4-yl)-7-methoxy-2-methylquinolin-4(1H)-one] |  |  | 1.8 |  | 1.8 | 0.57 | > 250 | > 10000 |
| Cc1[nH]c2c(c(=O)c1-c1ccc(-c3ccc(OC(F)(F)F)cc3)cc1)CCCC2 [ELQ-660] |  |  | 14.8 |  | 12.8 | 7.9 | 22.2 |  |
| COc1cc2[nH]c(C)c(-c3ccc(-c4cccc(S(F)(F)(F)(F)F)c4)cc3)c(=O)c2cc1Cl [ELQ-662, 6-Chloro-7-methoxy-2-methyl-3-(3′-(pentafluorosulfanyl)-[1,1′-biphenyl]-4-yl)quinolin-4(1H)-one] |  |  | 0.7 |  | 1.3 | 1.4 | > 250 |  |
| COc1cc2[nH]c(C)c(-c3ccc(-c4ccc(S(F)(F)(F)(F)F)cc4)cc3)c(=O)c2cc1Cl [ELQ-663, 6-Chloro-7-methoxy-2-methyl-3-(4′-(pentafluorosulfanyl)-[1,1′-biphenyl]-4-yl)quinolin-4(1H)-one] |  |  | 1.6 |  | 3.2 | 3.8 | > 250 |  |
| C=C(C)[C@H]1Cc2c(ccc3c2O[C@@H]2COc4cc(OC)c(OC)cc4[C@@H]2C3=O)O1 [rotenone, reference compound] |  |  |  | < 1000 |  |  |  |  |
